Measurements as given in patent US20260078120A1, “SUBSTITUTED PYRIDOPYRIMIDINONES” (MIRATI THERAPEUTICS, INC., priority 2022, published 2026).
Read-outs that look alike come from different tables or passages of the source.

What was measured:
[1] = test system: SKBR3 (PI3Kα wild type) cells; assay: CellTiter-Glo 2.0 luminescent cell viability assay, 72 hours, SKBR3 cells; type: cell-based; details: Homo sapiens, SK-BR-3, 72 h
How it was run: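 Viability measured via CTG luminescence following roughly 72 hours of compound exposure at 37° C. Dosing used a 10 um starting concentration diluted 1:4 over 10 points; percent-of-vehicle data fitted with a variable-slope four-parameter model for IC50.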

[2] = test system: T47D (PI3Kα H1047R mutant) cells; assay: CellTiter-Glo 2.0 luminescent cell viability assay, 72 hours, T47D cells; type: cell-based; details: Homo sapiens, T47D, 72 h
How it was run: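 Cells seeded at 1000 per well overnight were dosed with a 10-concentration, 1:4 series starting at 10 µM and incubated ~72 h at 37° C. Viability was read by CellTiter-Glo 2.0 luminescence after 30 min at room temperature. IC50 came from four-parameter fits of percent vehicle control.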

[3] = SKBR3 (PI3Kα wild type) cells, CellTiter-Glo, approximately 72 hours, read-out: SKBR3 (WT) Viability IC50
[4] = T47D (PI3Kα H1047R mutant) cells, CellTiter-Glo, approximately 72 hours, read-out: T47D (H1047R mutant) Viability IC50

| IC50 [1, 3] [nM] | IC50 [2, 4] [nM] | IC50 ([1]; read-out: SKBR3 (WT) Viability IC50 (nM)) [nM] | IC50 ([2]; read-out: T47D (H1047R mutant) Viability IC50 (nM)) [nM] | SMILES |
| --- | --- | --- | --- | --- |
| 890 | 532 | – | – | Cc1cc(C(C)Nc2ccccc2C(=O)O)c2nc(N3CCCCC3)c(C(F)(F)F)c(=O)n2c1 (centres unmarked) [Example 11-415, 2-((1-(7-methyl-4-oxo-2-(piperidin-1-yl)-3-(trifluoromethyl)-4H-pyrido[1,2-a]pyrimidin-9-yl)ethyl)amino)benzoic acid] |
| > 10000 | 9090 | – | – | CC(Nc1ccccc1C(=O)O)c1cc(C(F)(F)F)cn2c(=O)cc(N3CCCCC3)nc12 (centres unmarked) [Example 11-416, 2-((1-(4-oxo-2-(piperidin-1-yl)-7-(trifluoromethyl)-4H-pyrido[1,2-a]pyrimidin-9-yl)ethyl)amino)benzoic acid] |
| > 10000 | > 10000 | – | – | C[C@@H](Nc1ccccc1C(=O)O)c1cc(C#N)cn2c(=O)cc(N3CCC(F)(F)CC3)nc12 [Example 11-418, (R)-2-((1-(7-cyano-2-(4,4-difluoropiperidin-1-yl)-4-oxo-4H-pyrido[1,2-a]pyrimidin-9-yl)ethyl)amino)benzoic acid] |
| > 10000 | > 10000 | – | – | CC(Nc1ccccc1C(=O)O)c1cc(C#N)cn2c(=O)cc(N3CCC(F)(F)CC3)nc12 (centres unmarked) [Example 11-419, 2-((1-(7-cyano-2-(4,4-difluoropiperidin-1-yl)-4-oxo-4H-pyrido[1,2-a]pyrimidin-9-yl)ethyl)amino)benzoic acid] |
| – | – | > 10000 | 1310 | Cc1cc(C(C)Nc2ccccc2C(=O)O)c2nc(N3CCOCC3)cc(=O)n2c1 (centres unmarked) [Example 11-420, 2-((1-(7-methyl-2-morpholino-4-oxo-4H-pyrido[1,2-a]pyrimidin-9-yl)ethyl)amino)benzoic acid] |
| > 10000 | > 10000 | – | – | Cc1cc(C(C)Nc2ccccc2)c2nc(N3CCOCC3)cc(=O)n2c1 (centres unmarked) [Example 11-421, 7-methyl-2-morpholino-9-(1-(phenylamino)ethyl)-4H-pyrido[1,2-a]pyrimidin-4-one] |
| > 10000 | > 10000 | – | – | C[C@H](Nc1ccccc1C(=O)O)c1cccn2c(=O)cc(N3CCCCC3)nc12 [Example 11-423, (S)-2-((1-(4-oxo-2-(piperidin-1-yl)-4H-pyrido[1,2-a]pyrimidin-9-yl)ethyl)amino)benzoic acid] |
| > 10000 | 3140 | – | – | Cc1cc([C@@H](C)Nc2ccccc2C(=O)O)c2nc(N3CCn4ccnc4C3)c(C)c(=O)n2c1 [Example 11-429, (R)-2-((1-(2-(5,6-dihydroimidazo[1,2-a]pyrazin-7(8H)-yl)-3,7-dimethyl-4-oxo-4H-pyrido[1,2-a]pyrimidin-9-yl)ethyl)amino)benzoic acid] |
| > 10000 | 4670 | – | – | Cc1cc([C@@H](C)Nc2ccccc2C(=O)O)c2nc(N3CCn4cncc4C3)c(C)c(=O)n2c1 [Example 11-430, (R)-2-((1-(2-(5,6-dihydroimidazo[1,5-a]pyrazin-7(8H)-yl)-3,7-dimethyl-4-oxo-4H-pyrido[1,2-a]pyrimidin-9-yl)ethyl)amino)benzoic acid] |
| > 10000 | 403 | – | – | Cc1cc([C@@H](C)Nc2ccccc2C(=O)O)c2nc(N3CCn4nccc4C3)c(C)c(=O)n2c1 [Example 11-431, (R)-2-((1-(2-(6,7-dihydropyrazolo[1,5-a]pyrazin-5(4H)-yl)-3,7-dimethyl-4-oxo-4H-pyrido[1,2-a]pyrimidin-9-yl)ethyl)amino)benzoic acid] |
| > 10000 | 122 | – | – | Cc1cc([C@@H](C)Nc2ccccc2C(=O)O)c2nc(N3CCC(n4cccn4)CC3)c(C)c(=O)n2c1 [Example 11-432, (R)-2-((1-(2-(4-(1H-pyrazol-1-yl)piperidin-1-yl)-3,7-dimethyl-4-oxo-4H-pyrido[1,2-a]pyrimidin-9-yl)ethyl)amino)benzoic acid] |
| > 10000 | 641 | – | – | Cc1cc([C@@H](C)Nc2ccccc2C(=O)O)c2nc(N3CCC4(C3)CC(F)(F)C4(F)F)c(C)c(=O)n2c1 (stereo partly drawn) [Example 11-436, 2-(((1R)-1-(3,7-dimethyl-4-oxo-2-(1,1,2,2-tetrafluoro-6-azaspiro[3.4]octan-6-yl)-4H-pyrido[1,2-a]pyrimidin-9-yl)ethyl)amino)benzoic acid] |
| > 10000 | 252 | – | – | Cc1cc([C@@H](C)Nc2ccccc2C(=O)O)c2nc(N3CCN(c4ccccc4F)CC3)c(C)c(=O)n2c1 [Example 11-440, (R)-2-((1-(2-(4-(2-fluorophenyl)piperazin-1-yl)-3,7-dimethyl-4-oxo-4H-pyrido[1,2-a]pyrimidin-9-yl)ethyl)amino)benzoic acid] |
| > 10000 | 408 | – | – | Cc1cc([C@@H](C)Nc2ccccc2C(=O)O)c2nc(N3CCN(c4ccncc4)CC3)c(C)c(=O)n2c1 [Example 11-441, (R)-2-((1-(3,7-dimethyl-4-oxo-2-(4-(pyridin-4-yl)piperazin-1-yl)-4H-pyrido[1,2-a]pyrimidin-9-yl)ethyl)amino)benzoic acid] |

Further lines, the compound ahead of its results:

| SMILES | IC50 [1, 3] [nM] | IC50 [2, 4] [nM] | IC50 ([1]; read-out: SKBR3 (WT) Viability IC50 (nM)) [nM] | IC50 ([2]; read-out: T47D (H1047R mutant) Viability IC50 (nM)) [nM] |
| --- | --- | --- | --- | --- |
| Cc1cc([C@@H](C)Nc2ccccc2C(=O)O)c2nc(N3CCn4cc(C(F)(F)F)nc4C3)c(C)c(=O)n2c1 [Example 11-433, (R)-2-((1-(3,7-dimethyl-4-oxo-2-(2-(trifluoromethyl)-5,6-dihydroimidazo[1,2-a]pyrazin-7(8H)-yl)-4H-pyrido[1,2-a]pyrimidin-9-yl)ethyl)amino)benzoic acid] | > 10000 | 3010 | – | – |
| Cc1cc([C@@H](C)Nc2ccccc2C(=O)O)c2nc(N3CCN(c4ccc(C(F)(F)F)cn4)CC3)c(C)c(=O)n2c1 [Example 11-434, (R)-2-((1-(3,7-dimethyl-4-oxo-2-(4-(5-(trifluoromethyl)pyridin-2-yl)piperazin-1-yl)-4H-pyrido[1,2-a]pyrimidin-9-yl)ethyl)amino)benzoic acid] | 8310 | 138 | – | – |
| Cc1cc([C@@H](C)Nc2ccccc2C(=O)O)c2nc(N3CCN(c4nc5cc(C(F)(F)F)ccc5s4)CC3)c(C)c(=O)n2c1 [Example 11-435, (R)-2-((1-(3,7-dimethyl-4-oxo-2-(4-(5-(trifluoromethyl)benzo[d]thiazol-2-yl)piperazin-1-yl)-4H-pyrido[1,2-a]pyrimidin-9-yl)ethyl)amino)benzoic acid] | > 10000 | 356 | – | – |
| Cc1cc([C@@H](C)Nc2ccccc2C(=O)O)c2nc(N3CCN(c4cccc(C#N)c4C)CC3)c(C)c(=O)n2c1 [Example 11-438, (R)-2-((1-(2-(4-(3-cyano-2-methylphenyl)piperazin-1-yl)-3,7-dimethyl-4-oxo-4H-pyrido[1,2-a]pyrimidin-9-yl)ethyl)amino)benzoic acid] | > 10000 | 188 | – | – |
| Cc1cc([C@@H](C)Nc2ccccc2C(=O)O)c2nc(N3CCN(c4cccc(C(F)(F)F)c4)CC3)c(C)c(=O)n2c1 [Example 11-439, (R)-2-((1-(3,7-dimethyl-4-oxo-2-(4-(3-(trifluoromethyl)phenyl)piperazin-1-yl)-4H-pyrido[1,2-a]pyrimidin-9-yl)ethyl)amino)benzoic acid] | > 10000 | 241 | – | – |
| Cc1cc([C@@H](C)Nc2ccccc2C(=O)O)c2nc(N3CC(c4cc(C(F)(F)F)on4)C3)c(C)c(=O)n2c1 [Example 11-442, (R)-2-((1-(3,7-dimethyl-4-oxo-2-(3-(5-(trifluoromethyl)isoxazol-3-yl)azetidin-1-yl)-4H-pyrido[1,2-a]pyrimidin-9-yl)ethyl)amino)benzoic acid] | > 10000 | 871 | – | – |
| Cc1cc([C@@H](C)Nc2ccccc2C(=O)O)c2nc(N3C[C@H]4C[C@@H]3CN4CC(F)F)c(C)c(=O)n2c1 [Example 11-443, 2-(((R)-1-(2-((1R,4R)-5-(2,2-difluoroethyl)-2,5-diazabicyclo[2.2.1]heptan-2-yl)-3,7-dimethyl-4-oxo-4H-pyrido[1,2-a]pyrimidin-9-yl)ethyl)amino)benzoic acid] | > 10000 | 130 | – | – |
| Cc1cc([C@@H](C)Nc2ccccc2C(=O)O)c2nc(N3CC4CC(F)(F)CC4C3)c(C)c(=O)n2c1 (stereo partly drawn) [Example 11-444, 2-(((1R)-1-(2-(5,5-difluorohexahydrocyclopenta[c]pyrrol-2(1H)-yl)-3,7-dimethyl-4-oxo-4H-pyrido[1,2-a]pyrimidin-9-yl)ethyl)amino)benzoic acid] | > 10000 | 234 | – | – |
| Cc1cc([C@@H](C)Nc2ccccc2C(=O)O)c2nc(N3C[C@@H]4[C@H](C3)[C@H]4C(F)(F)F)c(C)c(=O)n2c1 [Example 11-445, 2-(((R)-1-(3,7-dimethyl-4-oxo-2-((1R,5S,6R)-6-(trifluoromethyl)-3-azabicyclo[3.1.0]hexan-3-yl)-4H-pyrido[1,2-a]pyrimidin-9-yl)ethyl)amino)benzoic acid] | > 10000 | 287 | – | – |
| Cc1cc([C@@H](C)Nc2ccccc2C(=O)O)c2nc(N3CCN(c4nc(C)cs4)CC3)c(C)c(=O)n2c1 [Example 11-446, (R)-2-((1-(3,7-dimethyl-2-(4-(4-methylthiazol-2-yl)piperazin-1-yl)-4-oxo-4H-pyrido[1,2-a]pyrimidin-9-yl)ethyl)amino)benzoic acid] | > 10000 | 300 | – | – |
| Cc1cc([C@@H](C)Nc2ccccc2C(=O)O)c2nc(N3CCC4(CCC(F)(F)C4)C3)c(C)c(=O)n2c1 (stereo partly drawn) [Example 11-447, 2-(((1R)-1-(2-(7,7-difluoro-2-azaspiro[4.4]nonan-2-yl)-3,7-dimethyl-4-oxo-4H-pyrido[1,2-a]pyrimidin-9-yl)ethyl)amino)benzoic acid] | > 10000 | 645 | – | – |
